“And” between values parts separate entries of the source, which are not always exact repeats. Equal entries are not always repeated. Where two headings read alike, the source gives them in different places. Marks after values point to notes of the source that are not given here.
Tests used:
[1] = tested on: germline BRCA1/2-mutated HER2- advanced breast cancer; design: method as in PMID 30110579; details: 1 mg once daily; cited from earlier work
[2] = tested on: advanced hematologic malignancies (AML, MDS, CLL, MCL); experiment: Anti-leukemic activity (best overall response); format: in vivo, human
Procedure: Objective response, duration of objective response, and time to progression or treatment failure were recorded. Response was measured by the following response criteria: the European leukemiaNet for subjects with AML [30], the International Working Group for Prognosis in MDS for subjects with MDS [31, 32], the International Workshop on Chronic Lymphocytic leukemia (iwCLL) for subjects with CLL, and the Revised Response Criteria for MCL [34].

PARP = tested on: PARP; design: method as in PMID 28302823, PMID 24356813, PMID 32241924; details: in vitro; cited from earlier work
[3] = tested on: patients with germline BRCA1/2 mutations and solid tumors; details: NCT01286987; cited from earlier work
[4] = Plasma pharmacokinetics after multiple daily talazoparib dosing; format: in vivo, human
Procedure: Plasma and urine samples were assayed for talazoparib concentrations by Covance Laboratories Inc., using validated high performance liquid chromatography with tandem mass spectrometry detection methods. The lower limits of quantitation for […] and urine were 5.0 pg/ml and 25.0 pg/ml, respectively. Evaluated PK parameters included maximum concentration (Cmax), minimum concentration (Cmin), time to maximum plasma concentration (Tmax), area under the curve from time 0 to last measurable concentration (AUC0–t), area under the curve from time 0 to 24 h post-dose (AUC0–24), amount of drug excreted into the urine from time 0 to 24 h (Ae0–24), fraction of administered drug excreted in the urine from time 0 to 24 h (Fe0–24), and average renal clearance from time 0 to 24 h (ARC0–24); ARC0–24 was calculated as (Ae0–24/AUC0–24). PK parameters were calculated using Phoenix™ WinNonlin® 6.1.
Summary statistics for plasma and urine talazoparib concentrations and PK parameters were calculated by grouping subjects in cohorts 1 and 2 together to provide a larger sample size at each dose level.

[5] = tested on: patients with advanced hematologic malignancies (cohort 1: AML/MDS; cohort 2: CLL/MCL); experiment: Dose-limiting toxicity / MTD, Phase I 3 + 3 dose-escalation of once-daily oral talazoparib (NCT01399840); format: in vivo; details: for Maximum tolerated dose (MTD): oral once daily, 21-day cycles
Procedure: This study was an open-label, two-cohort, Phase I, dose-escalation study of once-daily talazoparib monotherapy in patients with advanced hematologic malignancies (ClinicalTrials.gov Identifier: NCT01399840) conducted at seven sites in the US and the UK between July 2011 and November 2013. Enrollment and dose escalation were conducted independently in each cohort of the study. Talazoparib was administered orally, once a day for repeated 21-day cycles under fasting conditions. Each cohort consisted of two stages: dose escalation (stage 1) and dose expansion (stage 2). Dose escalation followed a standard 3 + 3 dose-escalation design, where the first patient in each group was observed from cycle 1 day 1 through cycle 1 day 8 before two to five additional patients were treated in that dose level. […] Planned talazoparib dose levels included 0.1, 0.2, 0.3, 0.45, 0.9, 1.35, and 2.0 mg/day.
The primary objective of the study was to establish the MTD of daily oral talazoparib in molecularly unselected patients with AML or MDS (cohort 1) and in patients with CLL or MCL (cohort 2). The MTD was defined as the highest dose level at which no more than one of six patients experienced a DLT. A DLT was defined as any of the following treatment-related toxicities occurring during cycle 1: in cohort 1, hematologic adverse events (AEs) included bone marrow hypoplasia (≤10% cellularity) lasting ≥28 days. Non-hematologic toxicities included any Grade ≥3 AE except for the following: (1) a non-hematologic Grade 3 laboratory AE that is asymptomatic and rapidly reversible (returned to baseline or to Grade ≤1 within 3 days) unless identified as clinically relevant by the investigator; (2) Grade 3 nausea, vomiting, and/or diarrhea responsive to medications within 24 h; (3) Grade 3 tumor lysis syndrome; (4) Grade 3 stomatitis that resolves within 7 days; or (5) Grade 3 fatigue unless ≥2 grade increase from baseline lasting >3 days. Missing ≥4 doses of talazoparib during cycle 1 for treatment-related non-hematologic toxicity was also defined as a DLT. In cohort 2, hematologic AEs included Grade 4 thrombocytopenia persisting for >7 days and/or resulting in Grade ≥2 hemorrhage, or Grade 4 neutropenia lasting >7 days and/or associated with fever (hematologic AEs for patients with bone marrow effacement [i.e., platelet count ≤50 × 10^9/L and neutrophil count <1 × 10^9/L] included >50% decrease in platelet count persisting for >7 days or resulting in Grade ≥2 hemorrhage, or >50% decrease in neutrophil count and/or associated with fever or systemic infection). For non-hematologic AEs, the same criteria used for cohort 1 were used to define DLT.
Patients experiencing a DLT during cycle 1 could resume talazoparib treatment at the same or reduced dose after recovery to baseline or Grade ≤1 within 21 days of treatment interruption. Patients not experiencing a DLT during cycle 1 could receive additional treatment until disease progression, treatment failure, or relapse. Patients with persisting non-hematologic Grade 1/2 toxicity were dose reduced ∼25%. Dosing was stopped for patients with a Grade 3/4 non-hematologic toxicity and resumed with a 25%–50% dose reduction if toxicity resolved to Grade 0/1 after >7 days, or returned to baseline. Patients with non-hematologic Grade 3 toxicity that resolved to Grade 0/1 in <7 days could resume with ∼25% reduction.
For determination of the MTD, only the treated evaluable patients were included. No formal sample size calculations based on statistical power were performed. Descriptive statistics were used to characterize all outcomes.

[6] = 1.35 mg/day, cycle 2 day 1, plasma, n = 3, median (range)

SMILES: Cn1ncnc1[C@H]1c2n[nH]c(=O)c3cc(F)cc(c23)N[C@@H]1c1ccc(F)cc1 [talazoparib]
- Progression-free survival compared with physician's choice of chemotherapy [1]: significantly longer progression-free survival
- Stable disease (best overall response) ([2]; Cohort 1, AML (n = 21)): 9 (42.9) n (%)
- Stable disease ≥16 weeks ([2]; Cohort 1, AML (n = 21)): 2 (9.5)^‡ n (%)
- Stable disease (best overall response) ([2]; Cohort 1, All (n = 25)): 13 (52.0) n (%)
- Stable disease ≥16 weeks ([2]; Cohort 1, All (n = 25)): 5 (20.0) n (%)
- Stable disease (best overall response) ([2]; Cohort 1, MDS (n = 4)): 4 (100) n (%)
- Stable disease ≥16 weeks ([2]; Cohort 1, MDS (n = 4)): 3 (75.0)^§ n (%)
- Stable disease (best overall response) ([2]; Cohort 2, All (n = 8)): 5 (62.5) n (%)
- Stable disease ≥16 weeks ([2]; Cohort 2, All (n = 8)): 1 (12.5) n (%)
- Stable disease (best overall response) ([2]; Cohort 2, CLL (n = 4)): 3 (75.0) n (%)
- Stable disease ≥16 weeks ([2]; Cohort 2, CLL (n = 4)): 0 n (%)
- Stable disease (best overall response) ([2]; Cohort 2, MCL (n = 4)): 2 (50.0) n (%)
- Stable disease ≥16 weeks ([2]; Cohort 2, MCL (n = 4)): 1 (25.0) n (%)
- Patients with stable disease ([2]; both cohorts, N = 33): 54.5%
- Stable disease of at least 16 weeks' duration ([2]; both cohorts, N = 33): six
- Transfusion independence ([2]; one with MDS and one with AML): two
- PARP-trapping activity compared with other PARP inhibitors (PARP): higher PARP-trapping activity
- Maximum tolerated dose (MTD) [3]: 1 mg once daily
- AR (accumulation ratio) [4, 6]: 3.80 (3.28, 4.22)
- Tmax [4, 6]: 1.03 (1.00, 4.00) hr
- AUC(0-t) ([4]; human, in vivo, 1.35 mg/day, cycle 2 day 1, plasma, n = 3, geometric mean (geometric CV%), read-out: AUC0–24): 226 ng·h/mL
- AUC(0-t) ([4]; human, in vivo, 1.35 mg/day, cycle 2 day 1, plasma, n = 3, geometric mean (geometric CV%), read-out: AUC0–t): 225 ng·h/mL
- Cmax ([4]; human, in vivo, 1.35 mg/day, cycle 2 day 1, plasma, n = 3, geometric mean (geometric CV%)): 19.7 ng/mL
- Total exposure vs dose ([4]; in vivo): dose-proportional increases in total exposure
- Maximum tolerated dose (MTD) ([5]; Cohort 1 (AML/MDS)): < 2.0 mg/day and 1.35 mg/day
- DLT AE: Neutropenic sepsis ([5]; Cohort 1, 0.10 mg/day (n = 3)): 0 (0.0) n (%)
- DLT AE: Neutropenic sepsis ([5]; Cohort 1, 0.20 mg/day (n = 3)): 0 (0.0) n (%)
- DLT AE: Neutropenic sepsis ([5]; Cohort 1, 0.30 mg/day (n = 5)): 0 (0.0) n (%)
- DLT AE: Neutropenic sepsis ([5]; Cohort 1, 0.45 mg/day (n = 3)): 0 (0.0) n (%)
- DLT AE: Neutropenic sepsis ([5]; Cohort 1, 0.90 mg/day (n = 4)): 0 (0.0) n (%)
- DLT AE: Neutropenic sepsis ([5]; Cohort 1, 1.35 mg/day (n = 3)): 0 (0.0) n (%)
- DLT AE: Neutropenic sepsis ([5]; Cohort 1, 2.00 mg/day (n = 4)): 1 (25.0)^† n (%)
- DLT AE: Neutropenic sepsis ([5]; Cohort 1, All (n = 25)): 1 (4.0) n (%)
- Maximum tolerated dose (MTD) ([5]; Cohort 2 (CLL/MCL)): < 0.9 mg/day and ~0.9 mg/day
- DLT AE: Neutropenic sepsis ([5]; Cohort 2, 0.10 mg/day (n = 3)): 0 (0.0) n (%)
- DLT AE: Neutropenic sepsis ([5]; Cohort 2, 0.90 mg/day (n = 5)): 0 (0.0) n (%)
- DLT AE: Neutropenic sepsis ([5]; Cohort 2, All (n = 8)): 0 (0.0) n (%)
- MTD in patients with hematologic malignancies (approximate range) ([5]; monotherapy, once daily, both cohorts): ~1 mg

— paper PMC8609999, “A Phase I trial of talazoparib in patients with advanced hematologic malignancies” (International Journal of Hematologic Oncology, 2021)
